Test results as given in patent publication US12161722B2, “Bifunctional heterocyclic compound having BTK degradation function via ubiquitin proteasome pathway, and use thereof” (KOREA RESEARCH INSTITUTE OF CHEMICAL TECHNOLOGY, priority 2021, dated 2024).

How the values were obtained:
C481S BTK protein = molecular target: T1, C481S BTK protein (Homo sapiens, UniProt Q06187, C481S); assay: BTK protein degradation assay (Western blotting), C481S BTK; assay type: cell-based; conditions: concentration range accounting for 50% degradation of C481S BTK protein, 293T BTK MUT (C481S) cells
T1 construct: expressed in transfected cells; host or cells: 293T BTK MUT (C481S) cells
Method: TMD-8, RAMOS, or 293T BTK MUT (C481S) cells were treated with the synthesized compounds and measured for intracellular BTK protein levels by Western blotting. The protocol of the experiment using TMD-8 cells is as follows.
The 12-well plates were treated as follows. A 10 mM stock was 1/10 diluted in series with DMSO ([…]) to form final concentrations of 10, 1, 0.1, 0.01, 0.001, and 0.0001 mM. The compounds with such concentrations were applied to cells, followed by harvesting the cells 24 hours later. For a negative control, a 1/10 dilution of DMSO in the medium (3 mL DMSO+27 mL medium) was used.
The 1-mL cell culture in each well was passed many times through a pipette and then transferred into a 1.5-mL microtube before centrifugation (500 g, 5 min, 4° C.). The supernatant was discarded and the cell pellet was washed with PBS. After centrifugation (500 g, 5 min, 4° C.) again, the supernatant was discarded and the cell pellet was taken.
A lysis buffer was prepared as follows. RIPA buffer (Biosesang, RC2038-050-00)+0.5 mM PMSF (SIGMA, P7626)+1×Protease/Phosphatase Inhibitor (Cell signaling, 5872S) was added in an amount […] per well and left for 30 minutes on ice (vortexing at 0 and 30 minutes) before sonication (5 cycles of pulse for 10 seconds and rest for 30 seconds, 70% amplification). The supernatant obtained by centrifugation (15000 g, 15 min, 4° C.) was transferred into a new microtube. Cells in each well of 96-well plates were 1/2 diluted with the RIPA buffer and incubated at 37° C. for 30 minutes with […] of a 50:1 mixture of BCA reagents A and B in BCA Protein Assay Kit (iNtRON, 21071). After being cooled for 10 minutes, the 96-well plates were measured for absorbance at 562 nm on the BioTek, SYNERGY H1 microplate reader. Samples were prepared by protein quantification based on the absorbance measurements and then boiled at 70° C. for 10 minutes. The sample buffer used in the case was prepared by mixing a NuPAGE or a Bolt 4× sample buffer (Invitrogen) and its 10× sample reducing agent depending on the gel to be used, and protein dilution was made in a RIPI buffer.
The samples were loaded in the same amount into a NuPAGE or Bolt Bis-tris 4-12% gradient gel and allowed to run therein (200 V, 35 minutes). The separated proteins were transferred onto a […] NC membrane, using Trans-blot Turbo (BIO-RAD) (1.3 A constant, 25V limit, 15 minutes). The membrane was blocked at room temperature for 1 hour with skim milk or Intercept Blocking Buffer (LI-COR, 927-60001):0.1% TBST=1:1. The membrane was incubated with Anti BTK Rabbit (1:1,000 in 5% skim milk/0.2% TBST, size: 77 kDa, Cell signaling Technology) at 4° C. overnight O/N or at room temperature for 2 hours and with Anti GAPDH Rabbit (1:10,000 in 5% BSA/0.2% TBST, size: 36 kDa, GENETEX) and Anti β-actin mouse (1:10,000 in 5% BSA/0.2% TBST, RT, size: 43 kDa, GENETEX) at room temperature for 1 or 3 hours. Then, the membrane was washed three times with 0.5% TBST for 5 minutes each time before incubation with the second antibody Anti-Rabbit IgG (1:5,000 in 5% Skim milk/TBST, CST), IRDye® 800CW Goat anti-Rabbit IgG Secondary Antibody (1:10,000 in 5% skim/TBST, RT 45 min), or IRDye® 680RD Goat anti-Mouse IgG Secondary Antibody (1:10,000 in 5% skim/TBST, RT 45 min) for 45 minutes at room temperature in a rocker. The membrane was washed five times with 0.5% TBST for 5 minutes in each time, followed by detection with LI-COR, Odyssey. In this regard, the detection proceeded, as it was, for house-keeping genes while using SuperSignal West Pico PLUS Chemiluminescent Substrate or SuperSignal West femto Maximum Sensitivity Substrate for BTK detection.
According to the concentration ranges of compounds accounting for 50% degradation of WT BTK protein and C481S BTK protein, the activities are expressed as +++(0.0001-0.01 μM), ++(0.01-1 μM), +(1-10 μM), −(>10 μM), and NT (not tested). […]

WT BTK protein = molecular target: T2, WT BTK protein (Homo sapiens, UniProt Q06187); assay: BTK protein degradation assay (Western blotting), WT BTK; assay type: cell-based; conditions: concentration range accounting for 50% degradation of WT BTK protein, TMD-8 or RAMOS cells, 24 hours
T2 construct: measured for intracellular BTK protein levels by Western blotting; endogenous in cells; host or cells: TMD-8 or RAMOS cells
Method in brief: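 BTK levels were read by Western blotting (GAPDH and β-actin normalisers) in RIPA lysates of TMD-8 cells exposed to compounds for 24 h at 1×10^6 cells/mL. Results scored in ranges of the concentration producing 50% loss of WT BTK.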

T1 sequence (Q06187 whole entry C481S): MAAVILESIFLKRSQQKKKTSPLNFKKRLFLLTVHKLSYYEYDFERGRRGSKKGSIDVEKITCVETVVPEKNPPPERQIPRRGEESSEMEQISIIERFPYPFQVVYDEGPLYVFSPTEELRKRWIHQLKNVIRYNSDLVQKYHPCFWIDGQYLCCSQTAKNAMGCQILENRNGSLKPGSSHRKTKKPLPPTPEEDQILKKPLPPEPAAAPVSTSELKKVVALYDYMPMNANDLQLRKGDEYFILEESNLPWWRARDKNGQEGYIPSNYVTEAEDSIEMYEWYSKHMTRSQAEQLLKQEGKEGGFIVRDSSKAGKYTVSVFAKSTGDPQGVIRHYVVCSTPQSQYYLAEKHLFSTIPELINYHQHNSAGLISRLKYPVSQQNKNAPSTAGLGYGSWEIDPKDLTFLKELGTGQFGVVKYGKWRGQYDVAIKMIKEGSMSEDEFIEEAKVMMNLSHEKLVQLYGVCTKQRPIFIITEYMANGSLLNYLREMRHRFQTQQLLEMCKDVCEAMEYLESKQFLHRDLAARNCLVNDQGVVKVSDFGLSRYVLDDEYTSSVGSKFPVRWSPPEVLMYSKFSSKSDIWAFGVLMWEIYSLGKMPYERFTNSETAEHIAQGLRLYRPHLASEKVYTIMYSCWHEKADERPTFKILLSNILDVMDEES
T2 sequence (Q06187 whole entry): as the sequence (Q06187 whole entry C481S) above, with S481C counted along it

SMILES | DC50 (C481S BTK protein) [nM] | DC50 (WT BTK protein) [nM]
Cc1cccc(C)c1Nc1nn(C)c2nc(Nc3ccc4c(c3)CN(CCOCCNC(=O)C3CCN(c5cccc6c5C(=O)N(C5CCC(=O)NC5=O)C6=O)CC3)CC4)ncc12 (stereo not drawn) [Compound 24, N-(2-(2-(7-((3-((2,6-Dimethylphenyl)amino)-1-methyl-1H-pyrazolo[3,4-d]pyrimidin-6-yl)amino)-3,4-dihydroisoquinolin-2 (1H)-yl)ethoxy)ethyl)-1-(2-(2,6-dioxopiperidin-3-yl)-1,3-dioxoisoindolin-4-yl)piperidine-4-carboxamide] | 1000 to 10000 | 0.1 to 10
Cc1cccc(C)c1Nc1nn(C)c2nc(Nc3ccc4c(c3)CN(C(=O)CCOCCOCCOCCOCCNC(=O)CN3CCN(c5ccc6c(c5)C(=O)N(C5CCC(=O)NC5=O)C6=O)CC3)CC4)ncc12 (stereo not drawn) [Compound 18] | > 10000 | 0.1 to 10
Cc1cccc(C)c1Nc1nn(C)c2nc(Nc3ccc4c(c3)CN(CCOCCNC(=O)C3CCN(c5ccc6c(c5)C(=O)N(C5CCC(=O)NC5=O)C6=O)CC3)CC4)ncc12 (stereo not drawn) [Compound 21, N-(2-(2-(7-((3-((2,6-Dimethylphenyl)amino)-1-methyl-1H-pyrazolo[3,4-d]pyrimidin-6-yl)amino)-3,4-dihydroisoquinolin-2 (1H)-yl)ethoxy)ethyl)-1-(2-(2,6-dioxopiperidin-3-yl)-1,3-dioxoisoindolin-5-yl)piperidine-4-carboxamide] | 1000 to 10000 | 0.1 to 10
Cc1cccc(C)c1Nc1nn(C)c2nc(Nc3ccc4c(c3)CN(CC3CCN(C(=O)CN5CCN(c6ccc7c(c6)C(=O)N(C6CCC(=O)NC6=O)C7=O)CC5)CC3)CC4)ncc12 (stereo not drawn) [Compound 31, 5-(4-(2-(4-((7-((3-((2,6-Dimethylphenyl)amino)-1-methyl-1H-pyrazolo[3,4-d]pyrimidin-6-yl)amino)-3,4-dihydroisoquinolin-2 (1H)-yl)methyl)piperidin-1-yl)-2-oxoethyl)piperazin-1-yl)-2-(2,6-dioxopiperidin-3-yl)isoindoline-1,3-dione] | 10 to 1000 | 0.1 to 10
Cc1cccc(C)c1Nc1nn(C)c2nc(Nc3ccc4c(c3)CN(C(=O)CCOCCOCCOCCOCCNC(=O)COc3ccc5c(c3)C(=O)N(C3CCC(=O)NC3=O)C5=O)CC4)ncc12 (stereo not drawn) [Compound 16, N-(15-(7-((3-((2,6-Dimethylphenyl)amino)-1-methyl-1H-pyrazolo[3,4-d]pyrimidin-6-yl)amino)-3,4-dihydroisoquinolin-2 (1H)-yl)-15-oxo-3,6,9,12-tetraoxapentadecyl)-2-((2-(2,6-dioxopiperidin-3-yl)-1,3-dioxoisoindolin-5-yl)oxy)acetamide] | 1000 to 10000 | 0.1 to 10
Cc1cccc(C)c1Nc1nn(C)c2nc(Nc3ccc4c(c3)CN(C(=O)CCOCCOCCOCCOCCNc3cccc5c3C(=O)N(C3CCC(=O)NC3=O)C5=O)CC4)ncc12 (stereo not drawn) [Compound 14] | > 10000 | 0.1 to 10

The remaining lines, values ahead:

DC50 (C481S BTK protein) [nM] | DC50 (WT BTK protein) [nM] | SMILES
10 to 1000 | 0.1 to 10 | Cc1cccc(C)c1Nc1nn(C)c2nc(Nc3ccc4c(c3)CN(C(=O)C3CCN(C(=O)COc5ccc6nnn(C7CCC(=O)NC7=O)c(=O)c6c5)CC3)CC4)ncc12 (stereo not drawn) [Compound 55, 3-(6-(2-(4-(7-((3-((2,6-Dimethylphenyl)amino)-1-methyl-1H-pyrazolo[3,4-d]pyrimidin-6-yl)amino)-1,2,3,4-tetrahydroisoquinoline-2-carbonyl)piperidin-1-yl)-2-oxoethoxy)-4-oxobenzo[d][1,2,3]triazin-3 (4H)-yl)piperidin-2,6-one]
10 to 1000 | 10 to 1000 | COCCOc1cc(C)c(Nc2nn(C)c3nc(Nc4ccc5c(c4)C(C)(C)N(C(=O)CCC(=O)Nc4ccc(OCCOCCOCCOCCNc6cccc7c6C(=O)N(C6CCC(=O)NC6=O)C7=O)cc4)CC5)ncc23)c(C)c1 (stereo not drawn) [Compound 6, N-(4-(2-(2-(2-(2-((2-(2,6-Dioxopiperidin-3-yl)-1,3-dioxoisoindolin-4-yl)amino)ethoxy)ethoxy)ethoxy)ethoxy)phenyl)-4-(7-((3-((4-(2-methoxyethoxy)-2,6-dimethylphenyl)amino)-1-methyl-1H-pyrazolo[3,4-d]pyrimidin-6-yl)amino)-1,1-dimethyl-3,4-dihydroisoquinolin-2 (1H)-yl)-4-oxobutanamide]
10 to 1000 | 10 to 1000 | Cc1cccc(C)c1Nc1nn(C)c2nc(Nc3ccc4c(c3)CN(C(=O)COCCOCCOCCOCCNC(=O)C3CCN(c5cccc6c5C(=O)N(C5CCC(=O)NC5=O)C6=O)CC3)CC4)ncc12 (stereo not drawn) [Compound 5, N-(14-(7-((3-((2,6-Dimethylphenyl)amino)-1-methyl-1H-pyrazolo[3,4-d]pyrimidin-6-yl)amino)-3,4-dihydroisoquinolin-2 (1H)-yl)-14-oxo-3,6,9,12-tetraoxatetradecyl)-1-(2-(2,6-dioxopiperidin-3-yl)-1,3-dioxoisoindolin-4-yl)piperidine-4-carboxamide]
10 to 1000 | 0.1 to 10 | Cc1cccc(C)c1Nc1nn(C)c2nc(Nc3ccc4c(c3)CN(CC3CCN(C(=O)C5CCN(c6cccc7nnn(C8CCC(=O)NC8=O)c(=O)c67)CC5)CC3)CC4)ncc12 (stereo not drawn) [Compound 62, 3-(5-(4-(4-((7-((3-((2,6-Dimethylphenyl)amino)-1-methyl-1H-pyrazolo[3,4-d]pyrimidin-6-yl)amino)-3,4-dihydroisoquinolin-2 (1H)-yl)methyl)piperidine-1-carbonyl)piperidin-1-yl)-4-oxobenzo[d][1,2,3]triazin-3 (4H)-yl)piperidin-2,6-one]
10 to 1000 | 0.1 to 10 | Cc1cccc(C)c1Nc1nn(C)c2nc(Nc3ccc4c(c3)CN(CC3CCN(C(=O)COc5ccc6c(c5)C(=O)N(C5CCC(=O)NC5=O)C6=O)CC3)CC4)ncc12 (stereo not drawn) [Compound 30, 5-(2-(4-((7-((3-((2,6-Dimethylphenyl)amino)-1-methyl-1H-pyrazolo[3,4-d]pyrimidin-6-yl)amino)-3,4-dihydroisoquinolin-2 (1H)-yl)methyl)piperidin-1-yl)-2-oxoethoxy)-2-(2,6-dioxopiperidin-3-yl)isoindoline-1,3-dione]
0.1 to 10 | 0.1 to 10 | Cc1cccc(C)c1Nc1nn(C)c2nc(Nc3ccc4c(c3)CN(CC3CCN(C(=O)C5CCN(c6ccc7c(c6)C(=O)N(C6CCC(=O)NC6=O)C7=O)CC5)CC3)CC4)ncc12 (stereo not drawn) [Compound 28, 5-(4-(4-((7-((3-((2,6-Dimethylphenyl)amino)-1-methyl-1H-pyrazolo[3,4-d]pyrimidin-6-yl)amino)-3,4-dihydroisoquinolin-2 (1H)-yl)methyl)piperidine-1-carbonyl)piperidin-1-yl)-2-(2,6-dioxopiperidin-3-yl)isoindoline-1,3-dione]
